From PubChem BioAssay AID2060605 (Molecular Pharmacology Branch, DTP, NCI, 2025)

System: 947758-054-R-J2-PDC spheroid growth, percent test/control
Test: Anticancer human tumor 947758-054-R-J2-PDC patient-derived colon adenocarcinoma cell line growth inhibition [CLK]
Conditions: spheroids with HUVEC and MSC; for IC50: curve of first compound; for viability, T/C: stronger effect = lower value
Method in brief: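 Patient-derived tumor cells grown as complex spheroids with HUVEC endothelial cells and mesenchymal stem cells, treated with drug combinations. Concentrations descend in half-log steps from near clinical Cmax, or from 10 microM if Cmax unknown.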

[1] = second compound 0.0316 µM, first compound 0.0316 µM
[2] = second compound 0.0316 µM, first compound 0.1 µM
[3] = second compound 0.0316 µM, first compound 0.316 µM
[4] = second compound 0.0316 µM, first compound 1 µM
[5] = second compound 0.1 µM, first compound 0.0316 µM
[6] = second compound 0.1 µM, first compound 0.1 µM
[7] = second compound 0.1 µM, first compound 0.316 µM
[8] = second compound 0.1 µM, first compound 1 µM
[9] = second compound 0.316 µM, first compound 0.0316 µM
[10] = second compound 0.316 µM, first compound 0.1 µM
[11] = second compound 0.316 µM, first compound 0.316 µM
[12] = second compound 0.316 µM, first compound 1 µM
[13] = second compound 1 µM, first compound 0.0316 µM
[14] = second compound 1 µM, first compound 0.1 µM
[15] = second compound 1 µM, first compound 0.316 µM
[16] = second compound 1 µM, first compound 1 µM
[17] = second compound 3.16 µM, first compound 0.0316 µM
[18] = second compound 3.16 µM, first compound 0.1 µM
[19] = second compound 3.16 µM, first compound 0.316 µM
[20] = second compound 3.16 µM, first compound 1 µM
[21] = second compound 10 µM, first compound 0.0316 µM
[22] = second compound 10 µM, first compound 0.1 µM
[23] = second compound 10 µM, first compound 0.316 µM
[24] = second compound 10 µM, first compound 1 µM
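Also: spheroids exposed to compounds for one week before readout.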
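For viability, T/C in this document: 100% = DMSO vehicle control wells.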

## COc1c(OCCCN2CCOCC2)ccc2c3n(c(=NC(=O)c4cnc(N)nc4)nc12)CCN3 + CN1CCN(c2cc(C(=O)Nc3cc4cc(-c5cnn(C)c5)ccc4cn3)ccn2)CC1
Second compound 0.0316 µM
  IC50: 184 nM
Second compound 0.1 µM
  IC50: 29 nM
Second compound 0.316 µM
  IC50: < 3.16 nM
Second compound 1 µM
  IC50: < 3.16 nM
Second compound 3.16 µM
  IC50: < 3.16 nM
Second compound 10 µM
  IC50: < 3.16 nM
Second compound 0.0316 µM, first compound 0.00316 µM
  viability, T/C: 157%
Second compound 0.0316 µM, first compound 0.01 µM
  viability, T/C: 133%
[1]
  viability, T/C: 90.8%
[2]
  viability, T/C: 75.6%
[3]
  viability, T/C: 28.7%
[4]
  viability, T/C: 18.1%
Second compound 0.1 µM, first compound 0.00316 µM
  viability, T/C: 188%
Second compound 0.1 µM, first compound 0.01 µM
  viability, T/C: 147%
[5]
  viability, T/C: 40.3%
[6]
  viability, T/C: 33.4%
[7]
  viability, T/C: 17.9%
[8]
  viability, T/C: 10%
Second compound 0.316 µM, first compound 0.00316 µM
  viability, T/C: 7.04%
Second compound 0.316 µM, first compound 0.01 µM
  viability, T/C: 6.09%
[9]
  viability, T/C: 3.95%
[10]
  viability, T/C: 2.44%
[11]
  viability, T/C: 0.75%
[12]
  viability, T/C: 1%
Second compound 1 µM, first compound 0.00316 µM
  viability, T/C: 0.16%
Second compound 1 µM, first compound 0.01 µM
  viability, T/C: 0.18%
[13]
  viability, T/C: 0.15%
[14]
  viability, T/C: 0.1%
[15]
  viability, T/C: 1.96%
[16]
  viability, T/C: 1.55%
Second compound 3.16 µM, first compound 0.00316 µM
  viability, T/C: 0.48%
Second compound 3.16 µM, first compound 0.01 µM
  viability, T/C: 0.95%
[17]
  viability, T/C: 0.19%
[18]
  viability, T/C: 0.15%
[19]
  viability, T/C: 1.63%
[20]
  viability, T/C: 2.02%
Second compound 10 µM, first compound 0.00316 µM
  viability, T/C: 0.31%
Second compound 10 µM, first compound 0.01 µM
  viability, T/C: 3.4%
[21]
  viability, T/C: 0.32%
[22]
  viability, T/C: 0.27%
[23]
  viability, T/C: 1.44%
[24]
  viability, T/C: 1.28%

## CC(Nc1ccc2c(c1)OCCn1cc(N3C(=O)OCC3C(F)F)nc1-2)C(N)=O (centres undefined) + CNC(=O)c1ccc(Nc2nc(OC3CCCC3)c3c(-c4ccc5nc(C)oc5c4)c[nH]c3n2)c(OC)c1
Second compound 0.0316 µM
  IC50: 75.4 nM
Second compound 0.1 µM
  IC50: 94.9 nM
Second compound 0.316 µM
  IC50: 59.4 nM
Second compound 1 µM
  IC50: < 31.6 nM
Second compound 3.16 µM
  IC50: < 31.6 nM
Second compound 10 µM
  IC50: < 31.6 nM
[1]
  viability, T/C: 55.6%
[2]
  viability, T/C: 51.5%
[3]
  viability, T/C: 39.4%
[4]
  viability, T/C: 35.8%
Second compound 0.0316 µM, first compound 3.16 µM
  viability, T/C: 39%
Second compound 0.0316 µM, first compound 10 µM
  viability, T/C: 33.7%
[5]
  viability, T/C: 70.7%
[6]
  viability, T/C: 46.2%
[7]
  viability, T/C: 36.2%
[8]
  viability, T/C: 35%
Second compound 0.1 µM, first compound 3.16 µM
  viability, T/C: 28%
Second compound 0.1 µM, first compound 10 µM
  viability, T/C: 20.8%
[9]
  viability, T/C: 64.6%
[10]
  viability, T/C: 37.9%
[11]
  viability, T/C: 16.9%
[12]
  viability, T/C: 22.7%
Second compound 0.316 µM, first compound 3.16 µM
  viability, T/C: 21.6%
Second compound 0.316 µM, first compound 10 µM
  viability, T/C: 14.4%
[13]
  viability, T/C: 34.1%
[14]
  viability, T/C: 19.7%
[15]
  viability, T/C: 12.5%
[16]
  viability, T/C: 10.8%
Second compound 1 µM, first compound 3.16 µM
  viability, T/C: 10.8%
Second compound 1 µM, first compound 10 µM
  viability, T/C: 4.05%
[17]
  viability, T/C: 31.8%
[18]
  viability, T/C: 14.3%
[19]
  viability, T/C: 9.12%
[20]
  viability, T/C: 8.23%
Second compound 3.16 µM, first compound 3.16 µM
  viability, T/C: 5.63%
Second compound 3.16 µM, first compound 10 µM
  viability, T/C: 4.88%
[21]
  viability, T/C: 20.7%
[22]
  viability, T/C: 10.9%
[23]
  viability, T/C: 10.3%
[24]
  viability, T/C: 6.53%
Second compound 10 µM, first compound 3.16 µM
  viability, T/C: 4.37%
Second compound 10 µM, first compound 10 µM
  viability, T/C: 4.21%
